The values that follow come from US9795677B2, “Method for reducing damage caused by free radicals” (Original BioMedicals Co., Ltd, priority 2012, dated 2017).

One data set deals with NMRI mice. Put plainly: Acute radiation protection in irradiated mice (WBC number). The note with it: 8Gy; amifostine 6.25 mg/kg i.v. 30 min before irradiation; 30 days after treatment. It is filed as in vivo, mouse. As for the experimental part:
Efficacy Result: In animal study, 30-day old NMRI mice weighing 20 to 30 g were tested for acute radiation protection. For radiation control group, mice were given 1, 4, and 8 Gy irradiation in 10 minutes, and for the standard treatment group, FDA-approved amifostine (6.25 mg/kg) was injected intravenously, and 30 minutes later the animals were given 8 Gy irradiation in 10 minutes. The 30 mins duration design is based on the short half-life of amifostine. A-01 indicates FePA with a formulation ratio of PEG-b-PGA:FeCl2.4H2O:amifostine=4:1:1 (w:w:w). The animals in the test group A-01 were administered intravenously with 37.5 mg/kg A-01 (containing the same amount of amifostine as used in the standard treatment group), and 120 minutes post injection, the animals were given 8 Gy radiation in 10 minutes. WBC number and survival rates were analyzed 30 days after treatment.

For data set [1] the following is noted: cited from earlier work.
Data set [2] deals with mouse embryonic liver cells (BNLCL.2). Briefly: Comet Assay of UV-irradiated cells (DNA damage). It is filed as cell-based. The note with it: BNLCL.2 cells, UVB 100 J·m-2; treatment given 30 minutes or 2 hr before UV irradiation; API and FeP 40 folds, FePA 20 folds dilution with PBS. The method, then: UV irradiation of the cells was used in this experiment to simulate the effects of radiation on normal cells, and the results were evaluated by Comet Assay. Comet Assay is a fast, sensitive and convenient method for examining DNA damage and is widely used in studying DNA damage caused by radiation, examining DNA crosslink, evaluating genotoxicity of drugs and identifying cell apoptosis, etc. […]
The mouse embryonic liver cells (BNLCL.2) were inoculated onto a 35 mm culture dish at the density of 3*10^5 cell/mL and cultured for at least 20 hours before subjected to the test. […] The treated cells were then collected with a scraper, counted, and centrifuged at 1,200 rpm for 5 minutes. […]
The bottle containing LM agarose was placed in 95° C. water for 5 minutes with loosed cap and then transferred to a 37° C. water bath for at least 20 minutes. […] The resulting images were analyzed using the epifluorescence microscope (the maximum excitation and emission wavelength of SYBR®Green I are 494 nm and 521 nm, respectively.) The fluorescence filter was also adjusted accordingly for efficient lighting) 200×.

As for `NCCCNCCSP(=O)(O)O` [Amifostine], the WBC in the data set on NMRI mice is 3.04-3.80 1000/cm^3. Moreover, the “amifostine remaining after i.v. injection” value in data set [1] (6 minutes after i.v. injection) is 10%. Further, in data set [1] (patients), the distribution half-life result is reported as “less than 1 minute” and the elimination half-life was 8 min. Further, the “average percentage of damaged DNA in the tail of the Comet (% TDNA) compared with the positive control group (UV)” value in data set [2] is recorded as “significantly reduced”.
